From article PMC12040169 (PLOS Biology, 2025)

test: in vitro; settings: human, hela cells, % viability

Row | SMILES | viability at 28.5 h, 10 µM [%]
1 | CCOC(=O)c1[nH]c2ccccc2c1NC(=O)c1ccc(OC(F)(F)F)cc1 [CBK160157] | 87.8
2 | CCOC(=O)c1[nH]c2ccccc2c1NC(=O)CN1C(=O)CSC1=O [CBK160163] | 102
3 | CCOC(=O)c1[nH]c2ccccc2c1NC(=O)c1ccoc1 [CBK160169] | 107
4 | CCOC(=O)c1[nH]c2ccccc2c1NC(=O)[C@@H]1CCCN1C [CBK160171T] | 84.9
5 | O=C(O)c1ccc(-c2ccc(OC(F)(F)F)cc2)nc1 [CBK160173T] | 90.6
6 | COC(=O)c1ccc(-c2ccc3[nH]ccc3c2)nc1 [CBK160174T] | 89.1
7 | COC(=O)c1ccc(-c2ccc(OC)c(OC)c2)nc1 [CBK160175T] | 98.7
8 | CC(=O)Nc1ccc(-c2ccc(C(=O)N3CCN(C(=O)c4ccco4)CC3)cn2)cc1 [CBK160186] | 85.8
9 | Nc1ncc(-c2ccc(C(=O)N3CCOCC3)cc2)cc1C(=O)Nc1ccncc1 [CBK160202] | 93.6
10 | COc1cccc(NC(=O)c2cc(-c3ccc(C(=O)N4CCOCC4)cc3)cnc2N)c1 [CBK160203] | 89.4
11 | CC(=O)N1CCc2ccc(NC(=O)c3cc(-c4ccc(C(=O)N5CCOCC5)cc4)cnc3N)cc21 [CBK160205] | 89.9
12 | Cc1ccc(NC(=O)c2cncc(-c3ccc(C(=O)N4CCOCC4)cc3)c2)c(O)c1 [CBK160208] | 84.3
13 | CC(=O)N1CCc2ccc(NC(=O)c3cncc(-c4ccc(C(=O)N5CCOCC5)cc4)c3)cc21 [CBK160217] | 77.8
14 | COCCNC(=O)c1cnn2c(C)c(Cc3ccccc3C)c(C)nc12 [CBK160253] | 94.5
15 | COC(=O)c1cnn2c(C)c(Cc3cccc(Br)c3)c(C)nc12 [CBK160273] | 90.4
16 | O=C(Cc1c(O)c2ccccc2[nH]c1=O)NCc1ccc(Cl)cc1 [CBK160317] | 101
17 | O=C(NCc1ccccc1)c1ccc2[nH]c(=O)c(-c3ccccc3)c(O)c2c1 [CBK160318] | 84

Row | SMILES | viability at 28.5 h, 10 µM [%]
18 | O=C(Cc1c(O)c2ccccc2[nH]c1=O)NCc1ccccc1Cl [CBK160320] | 88
19 | CCNC(=O)c1cncc(-c2[nH]nnc2-c2ccccc2)c1 [CBK160354] | 96.9
20 | O=C(c1cncc(-c2[nH]nnc2-c2ccccc2)c1)N1CCCC1 [CBK160360] | 91.7
21 | O=S(=O)(Nc1cccc(-c2nnn[nH]2)c1)c1ccc(Br)s1 [CBK160377] | 101
22 | CNC(=O)c1cccc(NS(=O)(=O)c2sc3ccc(Cl)cc3c2C)c1 [CBK160383] | 89.3
23 | COC(=O)C1C=C(NS(=O)(=O)c2ccc(-c3ccnc(SC)n3)s2)C=CC1 (stereo not shown) [CBK160388] | 104
24 | COC(=O)c1cccc(N(C)S(=O)(=O)c2sc3ccc(Cl)cc3c2C)c1 [CBK160390] | 94.1
25 | CCOC(=O)c1ccc(NCc2c(O)ccc3oc4c(c23)CCCC4)cc1 [CBK160394] | 97.7
26 | COc1ccccc1NCc1c(O)c(Br)cc2oc3c(c12)CCCC3 [CBK160398] | 93.4
27 | CS(=O)(=O)Nc1cccc(C(=O)O)c1 [CBK160404] | 96.3
28 | Cc1ccc(CN(C2CCN(C)CC2)S(=O)(=O)c2ccccc2F)cc1 [CBK160444T] | 90.8
29 | Cc1ccc(CN(C2CCN(C)CC2)S(=O)(=O)c2ccc(F)cc2F)cc1 [CBK160448T] | 97.5
30 | Cc1onc(-c2ccccc2)c1C(=O)N1CCC1 [CBK160450] | 90.6
31 | CC(=O)CCC(=O)N1CCN(C(=O)c2ccc(-c3ccc(S(C)(=O)=O)cc3)cn2)CC1 [CBK160484] | 105
32 | CC(C)(C)c1ccc(CN2CCN(C(=O)c3ccc(-c4ccc(S(C)(=O)=O)cc4)cn3)CC2)cc1 [CBK160487] | 96.1
33 | COc1ccc(CCN(CCN2CCOCC2)C(=O)NCc2ccc3c(c2)OCO3)cc1OC [CBK160540] | 93.3
34 | CCN(CC)C(=O)CN(CCc1ccc(OC)c(OC)c1)C(=O)NCc1cc(C)on1 [CBK160581] | 96.1
